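Briefly, cells in 96-well plates were exposed to five compound concentrations for 48 h, and endpoints were estimated by linear interpolation. TGI: concentration producing complete growth inhibition.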
What was measured:
Experiment in all cases: NCI-60 cell line screen, 48 h
[1] = system: NCI-H522 lung
[2] = system: MOLT-4 leukemia
[3] = system: EKVX NSCLC
[4] = system: OVCAR-8 ovarian
[5] = system: SK-OV-3 ovarian
[6] = system: UACC-62 melanoma
[7] = system: M14 melanoma
[8] = system: SNB-19 CNS
[9] = system: BT-549 breast
[10] = system: HL-60(TB) leukemia
[11] = system: SNB-75 CNS
[12] = system: HOP-92 NSCLC
[13] = system: SK-MEL-5 melanoma
[14] = system: NCI/ADR-RES ovarian
[15] = system: A498 renal
[16] = system: MDA-MB-435
[17] = system: SF-268 CNS

CN(C)CCn1c(=O)c2ccc(NCCN3CCNCC3)c3c(=O)c4ccccc4n(c1=O)c23
TGI [1]: 10 µM
TGI [2]: 0.147 µM
TGI [3]: 18.6 µM
TGI [4]: 31.4 µM
TGI [5]: 24.6 µM
TGI [6]: 15.8 µM
TGI [7]: 29 µM
TGI [8]: 23.9 µM
TGI [9]: 22.9 µM
TGI [10]: 18.4 µM
TGI [11]: 10.1 µM
TGI [12]: 9.59 µM
TGI [13]: 12.7 µM
TGI [14]: 30 µM
TGI [15]: 16.1 µM
TGI [16]: 9.01 µM
TGI [17]: 18.7 µM

O=C1CSC(c2ccccc2[N+](=O)[O-])N1c1ccc(-c2ccc(-n3c(-c4ccccc4)nc4ccccc4c3=O)cc2)cc1 (stereo unspecified)
TGI [1]: > 100 µM
TGI [2]: > 100 µM
TGI [3]: > 100 µM
TGI [4]: > 100 µM
TGI [5]: > 100 µM
TGI [6]: > 100 µM
TGI [7]: > 100 µM
TGI [8]: > 100 µM
TGI [9]: > 100 µM
TGI [10]: > 100 µM
TGI [11]: 61.3 µM
TGI [12]: > 100 µM
TGI [13]: > 100 µM
TGI [14]: > 100 µM
TGI [15]: > 100 µM
TGI [16]: > 100 µM
TGI [17]: > 100 µM

COc1ccccc1C1ON=C(c2ccc([N+](=O)[O-])cc2)N1C12CC3CC(CC(C3)C1)C2 (stereo unspecified)
TGI [1]: > 100 µM
TGI [2]: > 100 µM
TGI [3]: > 100 µM
TGI [4]: > 100 µM
TGI [5]: > 100 µM
TGI [6]: > 100 µM
TGI [7]: > 100 µM
TGI [8]: > 100 µM
TGI [9]: > 100 µM
TGI [10]: 42.5 µM
TGI [11]: > 100 µM
TGI [12]: > 100 µM
TGI [13]: > 100 µM
TGI [14]: > 100 µM
TGI [15]: > 100 µM
TGI [16]: > 100 µM
TGI [17]: > 100 µM

CC(C)O/N=C/c1cc(NC(=S)OC(C)C)ccc1Cl
TGI [1]: > 67.4 µM
TGI [2]: 48.8 µM
TGI [3]: > 75.2 µM
TGI [4]: > 90.3 µM
TGI [5]: 98.3 µM
TGI [6]: > 69.3 µM
TGI [7]: > 95.6 µM
TGI [8]: > 72.4 µM
TGI [9]: > 100 µM
TGI [10]: 57.6 µM
TGI [11]: 57.2 µM
TGI [12]: 99.8 µM
TGI [13]: > 73.4 µM
TGI [14]: > 84.9 µM
TGI [15]: > 76.5 µM
TGI [16]: > 100 µM
TGI [17]: > 69.8 µM

CC(C)[C@H](NC(=O)[C@H](N)Cc1ccc(N(CCCl)CCCl)cc1)C(=O)O
TGI [1]: > 100 µM
TGI [2]: > 100 µM
TGI [3]: > 100 µM
TGI [4]: > 100 µM
TGI [5]: > 100 µM
TGI [6]: > 100 µM
TGI [7]: > 100 µM
TGI [8]: > 100 µM
TGI [9]: > 100 µM
TGI [10]: > 100 µM
TGI [11]: > 100 µM
TGI [12]: > 100 µM
TGI [13]: > 100 µM
TGI [14]: > 100 µM
TGI [15]: > 100 µM
TGI [16]: > 100 µM
TGI [17]: > 100 µM

CN(/N=C/c1cccc2cccnc12)c1ccc(Cl)cc1[N+](=O)[O-]
TGI [1]: > 100 µM
TGI [2]: > 100 µM
TGI [3]: > 100 µM
TGI [4]: > 100 µM
TGI [5]: > 100 µM
TGI [6]: > 100 µM
TGI [7]: > 100 µM
TGI [8]: > 100 µM
TGI [9]: > 100 µM
TGI [10]: > 100 µM
TGI [11]: > 100 µM
TGI [12]: > 100 µM
TGI [13]: > 100 µM
TGI [14]: > 100 µM
TGI [15]: > 100 µM
TGI [16]: > 100 µM
TGI [17]: > 100 µM

COc1ccc(Cc2nnc(Nc3ccc(Br)cc3)[nH]c2=O)cc1OC
TGI [1]: > 100 µM
TGI [2]: > 100 µM
TGI [3]: > 100 µM
TGI [4]: > 100 µM
TGI [5]: > 100 µM
TGI [6]: > 100 µM
TGI [7]: > 100 µM
TGI [8]: > 100 µM
TGI [9]: > 31.6 µM
TGI [10]: > 100 µM
TGI [11]: > 100 µM
TGI [12]: > 100 µM
TGI [13]: > 100 µM
TGI [14]: > 100 µM
TGI [15]: > 100 µM
TGI [16]: 20.7 µM
TGI [17]: > 100 µM

CS(=O)(=O)c1ccc(N=C/C=C/Nc2ccc(S(C)(=O)=O)cc2)cc1
TGI [1]: > 100 µM
TGI [2]: > 100 µM
TGI [3]: > 100 µM
TGI [4]: > 100 µM
TGI [5]: > 100 µM
TGI [6]: > 100 µM
TGI [7]: > 100 µM
TGI [8]: > 100 µM
TGI [9]: > 100 µM
TGI [10]: > 100 µM
TGI [11]: > 100 µM
TGI [12]: > 100 µM
TGI [13]: > 100 µM
TGI [14]: > 100 µM
TGI [15]: > 100 µM
TGI [16]: > 100 µM
TGI [17]: > 100 µM

— PubChem BioAssay (NCI)
